The values below are quoted from earlier work in publication PMC7259638, “Characterization of the intestinal absorption of morroniside from Cornus officinalis Sieb. et Zucc via a Caco-2 cell monolayer model” (PLoS ONE, 2020).

Structures are written as SMILES.

The series concerns Caco-2 cell model. Also noted: method as in PMID 30671130. Particulars: cited from earlier work.

In the case of `COC(=O)C1=CO[C@@H](O[C@@H]2O[C@H](CO)[C@@H](O)[C@H](O)[C@H]2O)[C@@H]2[C@@H](C)[C@@H](O)C[C@H]12` [loganin], the “intestinal permeability (in words)” value (human intestinal Caco-2 cell model) was “good intestinal permeability”. The BCRP substrate status result (previous study) is given as “substrate of BCRP”.
